Results from patent publication US10351530B2, “Arylcyclohexyl pyrazoles as NRF2 regulators” (GlaxoSmithKline Intellectual Property Development Limited, priority 2015, dated 2019).

Legend:
Keap1/NRF2 = molecular target: T1, Keap1/NRF2 (Homo sapiens, UniProt Q14145); assay: NRF2-Keap1 FP Assay (Kelch domain (321-609) of Keap1, TAMRA-labeled NRF2 ETGE peptide); type: binding; conditions: Keap1 (321-609) 20 nM, Tamra labeled peptide 8 nM
T1 construct: Keap1 (321-609) is diluted to 40 nM (2×) in 1× assay buffer
T1 sequence (Q14145 321-609): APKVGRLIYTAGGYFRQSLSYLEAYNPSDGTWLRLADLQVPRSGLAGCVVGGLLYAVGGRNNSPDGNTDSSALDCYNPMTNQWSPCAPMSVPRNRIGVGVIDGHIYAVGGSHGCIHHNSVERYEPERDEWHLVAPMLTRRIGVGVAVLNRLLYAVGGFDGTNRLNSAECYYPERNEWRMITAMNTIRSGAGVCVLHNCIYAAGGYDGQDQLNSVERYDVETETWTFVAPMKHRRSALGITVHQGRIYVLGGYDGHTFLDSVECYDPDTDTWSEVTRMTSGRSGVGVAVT
In short: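 Fluorescence polarization competition: Keap1 Kelch (321-609) at 20 nM final and TAMRA-ETGE 16-mer peptide at 8 nM final with 3-fold compound dilutions, 1 h room temperature in Tris pH 8.0 buffer (NaCl, MgCl2, DTT, CHAPS, BSA). mP normalized to protein+peptide and peptide-alone controls; pIC50 by four-parameter fit.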

NRF2/Keap1 = molecular target: T2, NRF2/Keap1 (Homo sapiens, UniProt Q14145); assay: NRF2-Keap1 TR-FRET Assay (full length NRF2 and full length Keap1); type: binding; conditions: 25 nM Keap1-FlagHis, 50 nM biotin-NRF2 added
T2 construct: full length NRF2 protein and full length Keap1 protein (Keap1 exists a dimer) are used
T2 sequence (Q14145 whole entry): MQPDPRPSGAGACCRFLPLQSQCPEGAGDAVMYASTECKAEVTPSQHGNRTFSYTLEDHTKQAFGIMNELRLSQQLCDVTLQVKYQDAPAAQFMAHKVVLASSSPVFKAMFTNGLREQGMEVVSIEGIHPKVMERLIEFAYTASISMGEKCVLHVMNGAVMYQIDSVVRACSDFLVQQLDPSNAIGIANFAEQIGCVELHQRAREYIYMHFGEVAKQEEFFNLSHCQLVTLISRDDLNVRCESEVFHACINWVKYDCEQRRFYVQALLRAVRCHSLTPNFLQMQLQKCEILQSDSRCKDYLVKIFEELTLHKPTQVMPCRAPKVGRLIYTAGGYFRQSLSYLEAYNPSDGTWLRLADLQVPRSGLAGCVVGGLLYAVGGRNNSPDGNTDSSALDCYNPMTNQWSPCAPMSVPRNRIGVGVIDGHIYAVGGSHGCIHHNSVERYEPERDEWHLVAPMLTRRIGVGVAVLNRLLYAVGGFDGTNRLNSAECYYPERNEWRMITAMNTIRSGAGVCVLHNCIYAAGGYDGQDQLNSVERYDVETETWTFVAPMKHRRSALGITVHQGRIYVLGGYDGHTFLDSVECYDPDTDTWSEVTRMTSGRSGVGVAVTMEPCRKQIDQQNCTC
Text: In the NRF2-Keap1 TR-FRET (time-resolved fluorescence resonance energy transfer) assay, full length NRF2 protein and full length Keap1 protein (Keap1 exists a dimer) are used. The assay detects the ability of compound to displace the binding of FlagHis-tagged Keap1 with biotinylated, Avi-tagged NRF2 protein. Biotin-NRF2 binds to streptavidin-europium (a component of the detection mix) and Keap1-FlagHis is recognized by anti-Flag APC (allophycocyanin) antibody (also a component of the detection mix). If binding occurs between the two proteins, there will be an energy transfer from the Eu+3 (donor) at 615 nm to the APC (acceptor) at 665 nm. A potential Keap1 inhibitor will cause a reduction in the TR-FRET signal by interfering with the binding of Keap1 to NRF2.
One hundred nanoliters of 100× compound dose response curves (serial 3-fold dilutions) in DMSO are stamped using an Echo liquid handling system (Labcyte) into 384-well, low volume, black assay plates (Greiner, #784076), with DMSO in columns 6 and 18. The top concentration of compound is located in columns 1 and 13. All reagents are diluted in assay buffer (50 mM Tris, pH 8.0, 5 mM MgCl2, 100 mM NaCl, 0.005% BSA, 1 mM DTT, and 2 mM CHAPS). The BSA, DTT, and CHAPS are added to the assay buffer on the day of assay. Using a Multidrop Combi (Thermo Electron Corporation) equipped with a metal tip dispenser, 5 ul of 25 nM Keap1-FlagHis protein is added to all wells of the compound plate, with the exception of the wells in column 18. Wells in column 18 receive 5 ul of assay buffer instead. Plates are centrifuged at 500 rpm for 1 minute, covered with a plate lid, and incubated at 37° C. for 2.25 hours. Plates are then removed from the incubator and allowed to cool to RT for 15 minutes. Five microliters of 50 nM biotin-NRF2 protein is then added to all wells of the plates and the plates are spun at 500 rpm for 1 minute, followed by incubating at 4° C. for 1.25 hours. The plates are then allowed to warm to RT for 15 minutes, followed by the addition of 10 ul of detection mix (1 nM Streptavidin Eu+ W1024 and 5 ug/ml mouse anti-DYKDDDDK IgG conjugated to SureLight APC antibody; both from Columbia Biosciences) to all wells. Plates are spun at 500 rpm for 1 minute, incubated for 1 hour at RT, and read on an Envision plate reader using a 320 nm excitation filter and 615 nm and 665 nm emission filters. Compound response (% inhibition) and potency (pIC50) are calculated based on the ratio of the two emissions (665 nm/615 nm) and then the transformed data is normalized against controls in the assay (control 1=1% DMSO in the presence of NRF2 and Keap1 protein and control 2=1% DMSO in the absence of protein). Data analysis is handled using the software package Abase XE (Surrey, United Kingdom). The % inhibition values are calculated from the ratio (transformed) data by the equation: 100−(100*(compound response-average control 2)/(average control 1−average control 2)).
For calculation of pIC50s, Abase XE uses a four parameter equation.

Row | IC50 (Keap1/NRF2) [nM] | IC50 (NRF2/Keap1) [nM] | Compound
1 | 1000 to 10000 | 10000 to 100000 | CC1(C)CCc2cnn([C@@H]3CCC[C@@H](c4cccc(-n5ncc(C(=O)O)c5C5CC5)c4)C3)c21 (racemic) [Example 23, 5-Cyclopropyl-1-(3-(t-3-(6,6-dimethyl-5,6-dihydrocyclopenta[c]pyrazol-1(4H)-yl)cyclohexyl)phenyl)-1H-pyrazole-4-carboxylic Acid]
2 | 100 to 1000 | 1000 to 10000 | O=C(O)c1cnn(-c2cccc(C3=CC(C(=O)N4CCCCCC4)CCC3)c2)c1C1CC1 (stereo not drawn) [Example 19, 1-(5′-(Azepane-1-carbonyl)-2′,3′,4′,5′-tetrahydro-[1,1′-biphenyl]-3-yl)-5-cyclopropyl-1H-pyrazole-4-carboxylic Acid]
3 | 1000 to 10000 | 10000 to 100000 | CCCCC1CCc2cnn([C@@H]3CCC[C@@H](c4cccc(-n5ncc(C(=O)O)c5C5CC5)c4)C3)c21 (stereo partly drawn) [Example 38, 1-(3-((1,3-trans)-3-(6-Butyl-5,6-dihydrocyclopenta[c]pyrazol-1(4H)-yl)cyclohexyl)phenyl)-5-cyclopropyl-1H-pyrazole-4-carboxylic Acid]
4 | 10 to 100 | 10 to 100 | Cn1cc(C2CC2c2c(C(=O)O)cnn2-c2cccc([C@@H]3CCC[C@H](n4ncc5c4C(C)(C)CC5)C3)c2)nn1 (stereo partly drawn) [Example 39, 1-(3-((1R,3S)-3-(6,6-Dimethyl-5,6-dihydrocyclopenta[c]pyrazol-1(4H)-yl)cyclohexyl)phenyl)-5-(2-(1-methyl-1H-1,2,3-triazol-4-yl)cyclopropyl)-1H-pyrazole-4-carboxylic Acid]
5 | 10 to 100 | 100 to 1000 | Cn1cc(C2CC2c2c(C(=O)O)cnn2-c2cccc([C@H]3CCC[C@H](n4ncc5c4C(C)(C)CC5)C3)c2)nn1 (stereo partly drawn) [Example 40, 1-(3-((1,3-trans)-3-(6,6-Dimethyl-5,6-dihydrocyclopenta[c]pyrazol-1(4H)-yl)cyclohexyl)phenyl)-5-(2-(1-methyl-1H-1,2,3-triazol-4-yl)cyclopropyl)-1H-pyrazole-4-carboxylic Acid]
6 | 100 to 1000 | 1000 to 10000 | CCCCC1CCCC1N(C)C(=O)C1CCCC(c2cccc(-n3ncc(C(=O)O)c3C3CC3)c2)C1 (stereo not drawn) [Example 41, 1-(3-(3-((2-Butylcyclopentyl)(methyl)carbamoyl)cyclohexyl)phenyl)-5-cyclopropyl-1H-pyrazole-4-carboxylic Acid]
7 | 10 to 100 | 100 to 1000 | CCCCC1CCCN1C(=O)C1CCCC(c2cccc(-n3ncc(C(=O)O)c3C3CC3c3cn(C)nn3)c2)C1 (stereo not drawn) [Example 42, 1-(3-(3-(2-Butylpyrrolidine-1-carbonyl)cyclohexyl)phenyl)-5-(2-(1-methyl-1H-1,2,3-triazol-4-yl)cyclopropyl)-1H-pyrazole-4-carboxylic Acid]

The remaining lines, values behind:

Row | Compound | IC50 (Keap1/NRF2) [nM] | IC50 (NRF2/Keap1) [nM]
8 | CCCCC1CCCN1C(=O)C1CCCC(c2cccc(-n3ncc(C(=O)O)c3C3CC3)c2)C1 (racemic) [Example 8c, 1-{3-[3-(2-Butylpyrrolidine-1-carbonyl)cyclohexyl]phenyl}-5-cyclopropyl-1H-pyrazole-4-carboxylic Acid] | 10 to 100 | 100 to 1000
9 | CC(C)CCC1CCCN1C(=O)C1CCCC(c2cccc(-n3ncc(C(=O)O)c3C3CC3)c2)C1 (racemic) [Example 11, 5-Cyclopropyl-1-(3-{3-[2-(3-methylbutyl)pyrrolidine-1-carbonyl]cyclohexyl}phenyl)-1H-pyrazole-4-carboxylic Acid] | 10 to 100 | 100 to 1000
10 | O=C(O)c1cnn(-c2cccc(C3CCCC(C(=O)N4CCCC4C4CC4)C3)c2)c1C1CC1 (racemic) [Example 12, 5-cyclopropyl-1-{3-[3-(2-cyclopropylpyrrolidine-1-carbonyl)cyclohexyl]phenyl}-1H-pyrazole-4-carboxylic Acid] | 10 to 100 | 100 to 1000
11 | CCOC[C@@H]1CCCN1C(=O)C1CCCC(c2cccc(-n3ncc(C(=O)O)c3C3CC3)c2)C1 (single isomer, unassigned) [Example 18g] | 10 to 100 | 10 to 100
12 | CCCC[C@@H]1CCCN1C(=O)[C@H]1CCC[C@@H](c2cccc(-n3ncc(C(=O)O)c3C3CC3)c2)C1 [Example 17f, 1-{3-[(1R,3S)-3-[(2R)-2-Butylpyrrolidine-1-carbonyl]cyclohexyl]phenyl}-5-cyclopropyl-1H-pyrazole-4-carboxylic Acid] | 10 to 100 | 10 to 100
